This is an account of results in patent US20180305719A1, “Vectors For Integration Of DNA Into Genomes And Methods For Altering Gene Expression And Interrogating Gene Function” (The Board of Trustees of the University of Illinois, priority 2017, published 2018).

Holding throughout (format): cell-based, human
The subject of data set [1] is NEUROD1. The data set can be described thus: Activation of native gene expression in 293T cells, qPCR. The conditions noted are these: for induction of NEUROD1: 200 ng/mL doxycycline, NAVIa-edited 293T; for increase in NEUROD1 gene expression: idpTV-edited cells. As to the method: (§1) 293T and HCT116 cells were obtained from the American Tissue Collection Center (ATCC) and were maintained in DMEM supplemented with 10% fetal bovine serum and 1% penicillin/streptomycin at 37° C. with 5% CO2. 293T and HCT116 cells were transfected with Lipofectamine 2000 (Invitrogen) according to manufacturer's instructions. Transfection efficiencies were routinely higher than 80% for 293T cells and higher than 50% for HCT116 cells as determined by fluorescent microscopy following delivery of a control GFP expression plasmid. Induction of gene expression, unless otherwise noted, was carried out with 200 ng/mL doxycycline in DMEM prepared with 10% tetracycline-free FBS for 4 days.
(§2) Cells were harvested and flash-frozen in liquid nitrogen prior to RNA-extraction using the RNeasy Plus RNA isolation kit (Qiagen) according to manufacturer's instructions. cDNA synthesis was carried out using the qScript cDNA Synthesis Kit (Quanta Biosciences) from 1 μg of RNA and reactions were performed as directed by the supplier. For RT-qPCR, SsoFast EvaGreen Supermix (Bio-Rad) was added to cDNA and primers targeting the gene of interest and GAPDH (Table 10). Following 30 s at 95° C., qPCR (5 s at 95° C., 20 s at 55° C., 40 total cycles) preceded melt-curve analysis of the product by the CFX Connect Real-Time System (Bio-Rad). Ct values were used to calculate changes in expression level, relative to GAPDH and control samples by the 2^−ΔΔCt method.
In order to evaluate this gene activation architecture in the context of the human genome, three target genes were selected whose reported levels of activation utilizing CRISPRa are either high (ASCL1, ˜10^3-fold), medium (NEUROD1, ˜10^2-fold), or low (POU5F1, ˜10-fold). The primary sgRNAs targeting the genome were co-transfected into 293T cells with three plasmids containing (1) an expression cassette for active Cas9, (2) customized cspTV, cdpTV or idpTV, and (3) a universal secondary sgRNA. Following transfection, cells with integration of the TV were selected using puromycin and, in cells transfected with the idpTV, gene expression was induced with doxycycline. In parallel, one sgRNA or a mixture of 4 sgRNAs (previously validated for use with CRISPRa) were co-transfected into 293 Ts with dCas9-VPR for comparison of the NAVIa with CRISPRa. Gene expression using an individual sgRNA directing dCas9-VPR to target promoters was increased ˜10-fold for all targets tested but not statistically significant. Utilization of 4 sgRNAs simultaneously activated gene expression more effectively than 1 sgRNA (ASCL1: ˜1800-fold, NEUROD1: ˜2900-fold, POU5F:1 ˜90-fold). […] However, the idpTV (ASCL1: ˜7200-fold, NEUROD1: ˜76000-fold, POU5F1: ˜5370-fold) surpassed activation obtained using dCas9-VPR using 4 sgRNAs (FIG. 14B).

The subject of data set [2] is NEUROD1. Nature of the data set: NEUROD1 expression by qPCR in HCT116 and MRC-5 cells. The protocol:
as §1, §2
To further explore the trends we observed in 293T cells, NeuroD1 was targeted using the cdpTV in other cell lines.
(Quantitative PCR measures a nucleic acid by following its amplification.)

Data set [3] has as its system HCT116 cells. The data set can be described thus: Quantification of integration efficiency (colonies after antibiotic selection). The conditions noted are these: for Avg. Colonies: 450,000 cells transfected. The protocol: HCT116 cells were transfected with individual RGNs targeting either CTTN exon 8 or HLA-DRA, as well as Cas9, one universal RGN, and either one or two transfer vectors with expression cassettes conferring resistance to puromycin or puromycin and hygromycin. A total of 450,000 cells were transfected using 100 ng of each plasmid. The transfection efficiency was ˜55% as determined by FACS following delivery of a control GFP expression plasmid. Three days post transfection, 90% of cells from each well were harvested and replated into 10 cm dishes for selection with the appropriate antibiotics. Cells with monoallelic modifications were selected with puromycin whereas cells with biallelic modifications were selected with puromycin and hygromycin. Media and antibiotics were replenished every three days. Visible colonies appeared after approximately after one week. The number of clones for each transfection was counted and integration efficiency was determined as the ratio of the number of clonal cells derived from each transfection relative to the number of alleles modified by each specific sgRNA, as measured in experimental control samples using the surveyor assay.
Following selection in 10-cm plates with the appropriate antibiotic, total colonies were counted and divided by total cells transfected to obtain the overall editing efficiency of NAVI. This value was then adjusted to account for overall sgRNA editing efficiency, as measured by surveyor nuclease assay. This quantification was performed at 2 different loci using either a single or two antibiotics for selection.

Where [4] appears, read: selection Puromycin + Hygromycin.

On to `C[C@H]1c2cccc(O)c2C(=O)C2=C(O)[C@]3(O)C(=O)C(C(N)=O)=C(O)[C@@H](N(C)C)[C@@H]3[C@@H](O)[C@@H]21` [doxycycline], for which the “induction of NEUROD1” value was ~4000 fold in data set [1] (12 h), ~5000 fold in data set [1] (24 h), ~10000 fold in data set [1] (48 h) and ~15000 fold in data set [1] (96 h). In addition, the “increase in NEUROD1 gene expression” value in data set [1] (doxycycline 2 ng/mL, 96 h) was ~337 fold; in data set [1] (doxycycline 2 μg/mL, 96 h), ~26015 fold. The “ratio of gene expression between samples with and without doxycycline treatment” value is reported as ~426 fold in data set [2] (heterozygous clones), ~1486 fold in data set [2] (homozygous clones) and ~22 fold in data set [2] (pooled cells).
For “CTTN exon 8: sgRNA, protospacer GCGCTCTTGTCTACTCGGT, SEQ ID NO 8 (expressed or natural sequence)”, in data set [3] (selection Puromycin), the “% Efficiency (adjusted by indel %)” value is listed as 12.00%, the “% Efficiency (colonies/transfected cells)” value stood at 0.38% and the “Avg. Colonies” value worked out at 1726. In data set [3] (setting [4]), the “% Efficiency (adjusted by indel %)” value is given as 5.00%, the “% Efficiency (colonies/transfected cells)” value was 0.16% and the “Avg. Colonies” value is listed as 725.
With “HLA-DRA: sgRNA, protospacer GCTGTGCTGATGAGCGCTC, SEQ ID NO 9 (expressed or natural sequence)”, in data set [3] (selection Puromycin), the “% Efficiency (adjusted by indel %)” value was determined as 26.40%, the “% Efficiency (colonies/transfected cells)” value is listed as 0.58% and the “Avg. Colonies” value is on record as 2610. Moreover, in data set [3] (setting [4]), the “% Efficiency (adjusted by indel %)” value stood at 4.60%, the “% Efficiency (colonies/transfected cells)” value is 0.10% and the “Avg. Colonies” value amounted to 453.
